Test results: patent publication US20210393855A1, “NEW HYDROGELS HAVING A SILYLATED STRUCTURE, AND METHOD FOR OBTAINING SAME” (Universite de Montpellier, priority 2015, published 2021)

Experiment: Fluorescein release from hydrogels in phosphate buffer, monitored by HPLC
Format: physicochemical
Details: covalently grafted in PEG hydrogel, plateau after 72 hours
From the text: FIG. 2: this figure concerns tests to quantify the release of fluorescein from various hydrogels according to the invention. The hydrogels grafted with fluorescein by covalent bond show much lower release rates than the hydrogel containing fluorescein simply enclosed with no covalent bond.
In order to show the covalent incorporation of a (bio)molecule into the gel and the absence of release over time of the grafted molecules, fluorescein derivatives were selected to be chemically linked to the hydrogels in accordance with the present invention (see FIG. 2 for the exact formulae). Thus, if there were to be a release of the grafted molecules, the use of fluorescein would make it possible to easily detect it.
Fluorescein isothiocyanate (FITC) was used to prepare two types of fluorescein derivatives giving covalent bonds (triethoxysilane and dimethylhydroxysilane), as well as a non-silylated molecule used as control. Each fluorescein derivative was dissolved at a concentration of 5.2 mM in a solution of bi-silylated hybrid PEG, itself at a concentration of 10% by mass relative to the mass of DPBS used as solvent. Sodium fluoride was added, and the solutions were homogenized. Fluorescent hybrid hydrogels were obtained at 37° C. in 30 minutes. The various hydrogels were placed in phosphate buffer (10 mL) and fluorescein release was monitored by HPLC. […]

C[Si](C)(O)CCCNC(=O)NCCCNC(=S)Nc1ccc(-c2c3ccc(=O)cc-3oc3cc(O)ccc23)c(C(=O)O)c1 [dimethythydroxyfluorescein, Hydroxydimethylsilyl Fluorescein]
maximum release (relative to the total amount of fluorescein introduced): 20%
